Data reported in patent US12605407B2, “Methods to induce terminal differentiation in stem cells by interfering with DNA replication, methods of inducing pancreatic differentiation, and differentiated cells obtained thereof” (priority 2018, dated 2026).

Experiments:
[1] = system: NSG mice; assay: Transplantation of treated islet-like clusters, human C-peptide in mouse serum; format: in vivo
Procedure: (§1) 8-10 weeks old male immuno-compromised mice (NOD.Cg-Prkdcscid Il2rgtm1Wj1/SzJ (NSG) from Jackson laboratories, Cat. No. 005557) were used for transplantation. For intra leg muscle transplantation, 1-2 million cells were collected and settled in tube with 50 μl Matrigel. All animal protocols were approved by the Institutional Animal Care and Use Committee in Columbia University.
The human C-peptide levels in mouse serum were measured every two weeks in the fed state. Intraperitoneal glucose tolerance test was performed by fasting overnight and injecting 2 g/kg D-glucose solution at 2 weeks after mouse beta cells were ablated with one high dose (150 mg/kg) Streptozocin (Cat. No. S0130-1G, Sigma-Aldrich). Blood was collected in heparin-coated tube at fed state, fasting and 30 min after glucose injection. Plasma were collected by centrifuging tubes at 2000 g for 15 minutes at 4° C. The supernatants were collected for C-peptide and insulin detection with Mercodia M-Plex™ ARRAY Chemiluminescent Mercodia Beta Kit. Blood glucose levels was measured at fed state, fasting and every 30 minutes after glucose injection for 2 hours.
To test the ability of aphidicolin treated islet-like clusters to regulate blood glucose levels, treated and untreated cells were grafted into NSG mice on day 27 of differentiation. After transplantation in the immunodeficient mice, the mice transplanted with APH treated cells developed higher human C-peptide starting from 2 weeks after engraftment compared to that of control mice (FIG. 7A). The increase became significant from 6 weeks after transplantation (FIG. 7B).

[2] = system: stem cell derived beta cells; assay: Gene expression by quantitative realtime PCR in sorted insulin-GFP positive cells; format: cell-based, human
Text: Total RNA was extracted from the cells at beta cell stage (d27) from different conditions using a RNeasy Mini Kit (Cat. No. 74106, QIAGEN). The total RNA was reverse transcripted into cDNA using iScript™ Reverse Transcription Supermix (Cat. No. 170-8841, Bio-Rad), and the cDNA were sequentially used as template with SsoFast™ EvaGreen® Supermix (Cat. No. 172-5202, Bio-Rad) for quantitative realtime PCR.
By the end of day 27, 30% of control cells were in cell cycle through G1 to M phase indicated by the expression of KI67 (a proliferation marker expressed in the cells within cell cycle) and amount of DNA content (FIG. 3A). […] The cell cycle gene expression in insulin expressing cells was also examined.
Insulin positive cells were isolated based on GFP expression and the expressions of genes related to the maturation of beta cells including PDX1, NKX6.1, MAFA and insulin were evaluated (FIG. 6A). […] In addition, the C-peptide secretion was increased 2-6-fold, with an average of 3-fold, in response to high levels of glucose (FIG. 6D).

[3] = system: NSG mice; assay: Graft growth by luciferase reporter in vivo imaging, cyst formation and graft sections
Procedure: as §1
A major obstacle for the therapeutic translation of stem cell products is the formation of growths, in the form of a teratoma or of a cyst. To determine growth potential of the grafted cells, growth was evaluated by monitoring the graft with a luciferase reporter using in vivo imaging. Mice were transplanted with 1-2 million APH treated cells or untreated cells. After 2 weeks of transplantation, the graft size of APH mice was small, while controls were modestly larger (FIG. 8A). […] The different growth trend of grafted cells between control and APH treated cells was evident in the bioluminescence intensity (FIG. 8C). At 22 weeks of engraftment, the size of graft in APH group was an average of 2.6-fold larger than that of 2 weeks compare to the control group which had 53.1-fold increase (FIG. 8D). Graft growth occurred in controls even in cultures with very high differentiation efficiency (greater than 60%). The increase of graft size was slower in the 3 mice transplanted with control cells with high differentiation efficiency but cystic structure still formed in three out of the three (3/3) mice (FIG. 8C, FIG. 8E).
The grafts were isolated from mice and frozen sectioned for examination. […] In control mice, the graft developed several large cystic structures and contained fewer C-peptide positive cells (FIG. 8G).

[4] = GFP positive cells from APH treated clusters versus GFP positive cells in control clusters
[5] = isolated grafts, frozen sections

C[C@@]1(CO)[C@H](O)CC[C@@]2(C)[C@H]1CC[C@H]1C[C@@H]3C[C@@]12CC[C@]3(O)CO [APH, Aphidicolin]
secretion of human C-peptide in mice ([1]; after glucose injection): increased
increase of human C-peptide versus control mice, significance ([1]; from 6 weeks after transplantation): significant
human C-peptide compared to control mice ([1]; mice transplanted with APH treated cells, starting from 2 weeks after engraftment): higher
secretion of human C-peptide in mice ([1]; when mice were fasted): downregulated
expression of MAFA at transcription level [2, 4]: significantly upregulated
expression of NKX6.1 at transcription level [2, 4]: significantly upregulated
expression of PDX1 at transcription level [2, 4]: significantly upregulated
expression of insulin at transcription level [2, 4]: significantly upregulated
expression of CDK4 ([2]; insulin positive cells): downregulated
expression of Cyclin D1 ([2]; insulin positive cells): downregulated
expression of P21 ([2]; insulin positive cells): upregulated
graft size ([3]; 2 weeks of transplantation, 1-2 million APH treated cells): small
size of graft relative to 2 weeks, average (bioluminescence) ([3]; 22 weeks of engraftment): 2.6 fold
graft size relative to graft at 2 weeks ([3]; eleven weeks later (13 weeks post transplantation)): remained the similar size
cysts in mice grafted with APH treated cells ([3]; four out of the four (4/4) mice): No cysts
MAFA staining of insulin expressing beta cells in graft [3, 5]: positive for MAFA
graft composition [3, 5]: islet like structures
